Experimental data: patent US20250296948A1, “SYNTHESIS OF NUCLEOSIDE DERIVATIVES” (Nucana plc, priority 2022, published 2025)

How the values were obtained:
Assay type in all cases: physicochemical
[1] = 6 month dry powder stability, HPLC assay
From the text: (§1) NUC-3373 prepared according to Example 3 and Comparative Example 4 was packed into a transparent LDPE bag which was then filled with nitrogen and tied with a strip seal. This bag was then placed into another transparent LDPE bag which was also filled with nitrogen. A silica gel packet was placed between the two bags before the outermost bag was tied with a strip seal. These bags were then placed in a triple laminated sun light barrier bag which was sealed with a heat sealer. The bags were kept in a HDPE container.
(§2) NUC-3373 was initially assayed by HPLC after manufacture (0 months) then after 1 and 2 and/or 3 and 6 months of storage at 2-8° C., 25° C. or 40° C.

[2] = 6 month dry powder stability, Alpha Naphthol content by HPLC
From the text: as §1, §2
The Alpha Naphthol content of the same batches was also determined by HPLC. The levels of the alpha naphthol impurity is a key indicator of stability of the tested material.

[3] = Solution stability, alpha naphthol (0.60 RRT) in DMA:Saline (80:20 v/v); set-up: 0.60 RRT (Alpha Naphthol): unit not given here; settings: 400 mg/mL in DMA:Saline (80:20 v/v)
Description: Stability data is also provided in Table 4, which compares the levels of alpha naphthol (0.60 RRT) present in solutions of 400 mg/mL NUC-3373, prepared by Example 3 or 4, above, in DMA:Saline (80:20 v/v) at different temperatures measured over set periods of time. The tested solutions are suitable for infusion and injection and the temperatures and times measured are representative of the environments that solutions suitable for infusion and injection would typically be stored in.
In Table 4 the two values provided for each temperature at each time period, separated by “/”, represent different preparations (samples) of that synthesis.

C[C@H](NP(=O)(OC[C@H]1O[C@@H](n2cc(F)c(=O)[nH]c2=O)CC1O)Oc1cccc2ccccc12)C(=O)OCc1ccccc1 (stereo partly drawn) [Example 3, Batch 2, 5-fluoro-2′-deoxyuridine-5′-O-[1-naphthyl (benzoxy-L-alaninyl)] phosphate]
Decrease after 6 months, HPLC assay ([1]; 2-8 ° C.): None | HPLC assay (% w/w on anhydrous and solvent free basis) ([1]; 2-8 ° C., 0 months): 100.2 % w/w | HPLC assay (% w/w on anhydrous and solvent free basis) ([1]; 2-8 ° C., 3 months): 101.3 % w/w | HPLC assay (% w/w on anhydrous and solvent free basis) ([1]; 2-8 ° C., 6 months): 100.4 % w/w | Decrease after 6 months, HPLC assay ([1]; 25 ° C.): None | HPLC assay (% w/w on anhydrous and solvent free basis) ([1]; 25 ° C., 0 months): 100.2 % w/w | HPLC assay (% w/w on anhydrous and solvent free basis) ([1]; 25 ° C., 3 months): 101.1 % w/w | HPLC assay (% w/w on anhydrous and solvent free basis) ([1]; 25 ° C., 6 months): 100.7 % w/w | Decrease after 6 months, HPLC assay ([1]; 40 ° C.): None | HPLC assay (% w/w on anhydrous and solvent free basis) ([1]; 40 ° C., 0 months): 100.2 % w/w | HPLC assay (% w/w on anhydrous and solvent free basis) ([1]; 40 ° C., 1 month): 99.7 % w/w | HPLC assay (% w/w on anhydrous and solvent free basis) ([1]; 40 ° C., 2 months): 100.9 % w/w | HPLC assay (% w/w on anhydrous and solvent free basis) ([1]; 40 ° C., 3 months): 101.5 % w/w | HPLC assay (% w/w on anhydrous and solvent free basis) ([1]; 40 ° C., 6 months): 100.4 % w/w | Increase after 6 months, Alpha Naphthol by HPLC ([2]; 2-8 ° C.): None | Alpha Naphthol by HPLC (% w/w) ([2]; 2-8 ° C., 0 months): 0.44 % w/w | Alpha Naphthol by HPLC (% w/w) ([2]; 2-8 ° C., 3 months): 0.46 % w/w | Alpha Naphthol by HPLC (% w/w) ([2]; 2-8 ° C., 6 months): 0.43 % w/w | Increase after 6 months, Alpha Naphthol by HPLC ([2]; 25 ° C.): None | Alpha Naphthol by HPLC (% w/w) ([2]; 25 ° C., 0 months): 0.44 % w/w | Alpha Naphthol by HPLC (% w/w) ([2]; 25 ° C., 3 months): 0.45 % w/w | Alpha Naphthol by HPLC (% w/w) ([2]; 25 ° C., 6 months): 0.42 % w/w | Increase after 6 months, Alpha Naphthol by HPLC ([2]; 40 ° C.): None | Alpha Naphthol by HPLC (% w/w) ([2]; 40 ° C., 0 months): 0.44 % w/w | Alpha Naphthol by HPLC (% w/w) ([2]; 40 ° C., 1 month): 0.44 % w/w | Alpha Naphthol by HPLC (% w/w) ([2]; 40 ° C., 2 months): 0.42 % w/w | Alpha Naphthol by HPLC (% w/w) ([2]; 40 ° C., 3 months): 0.42 % w/w | Alpha Naphthol by HPLC (% w/w) ([2]; 40 ° C., 6 months): 0.38 % w/w | 0.60 RRT (Alpha Naphthol) ([3]; After 1 month at 2-8° C., first preparation (before "/")): 0.02/0.02 | 0.60 RRT (Alpha Naphthol) ([3]; After 1 month at 2-8° C., second preparation (after "/")): 0.02/0.02 | 0.60 RRT (Alpha Naphthol) ([3]; After 1 month at 25 ± 5° C., first preparation (before "/")): 0.04/0.04 | 0.60 RRT (Alpha Naphthol) ([3]; After 1 month at 25 ± 5° C., second preparation (after "/")): 0.04/0.04 | 0.60 RRT (Alpha Naphthol) ([3]; After 3 months at 2-8° C., first preparation (before "/")): 0.02/0.02 | 0.60 RRT (Alpha Naphthol) ([3]; After 3 months at 2-8° C., second preparation (after "/")): 0.02/0.02 | 0.60 RRT (Alpha Naphthol) ([3]; After 3 months at 25 ± 5° C., first preparation (before "/")): 0.11/0.11 | 0.60 RRT (Alpha Naphthol) ([3]; After 3 months at 25 ± 5° C., second preparation (after "/")): 0.11/0.11 | 0.60 RRT (Alpha Naphthol) ([3]; After 6 months at 2-8° C., first preparation (before "/")): 0.03 | 0.60 RRT (Alpha Naphthol) ([3]; After 6 months at 2-8° C., second preparation (after "/")): 0.02 | 0.60 RRT (Alpha Naphthol) ([3]; After 6 months at 25 ± 5° C., first preparation (before "/")): 0.34 | 0.60 RRT (Alpha Naphthol) ([3]; After 6 months at 25 ± 5° C., second preparation (after "/")): 0.35 | 0.60 RRT (Alpha Naphthol) ([3]; After 9 months at 2-8° C., first preparation (before "/")): 0.03/0.03 | 0.60 RRT (Alpha Naphthol) ([3]; After 9 months at 2-8° C., second preparation (after "/")): 0.03/0.03 | 0.60 RRT (Alpha Naphthol) ([3]; After 9 months at 25 ± 5° C., first preparation (before "/")): 0.89/0.89 | 0.60 RRT (Alpha Naphthol) ([3]; After 9 months at 25 ± 5° C., second preparation (after "/")): 0.89/0.89 | 0.60 RRT (Alpha Naphthol) ([3]; After 12 months at 2-8° C., first preparation (before "/")): 0.04/0.04 | 0.60 RRT (Alpha Naphthol) ([3]; After 12 months at 2-8° C., second preparation (after "/")): 0.04/0.04 | 0.60 RRT (Alpha Naphthol) ([3]; After 12 months at 25 ± 5° C., first preparation (before "/")): 1.60/1.60 | 0.60 RRT (Alpha Naphthol) ([3]; After 12 months at 25 ± 5° C., second preparation (after "/")): 1.60/1.60 | 0.60 RRT (Alpha Naphthol) ([3]; After 15 days at 2-8° C., first preparation (before "/")): 0.01/0.01 | 0.60 RRT (Alpha Naphthol) ([3]; After 15 days at 2-8° C., second preparation (after "/")): 0.01/0.01 | 0.60 RRT (Alpha Naphthol) ([3]; After 15 days at 25 ± 5° C., first preparation (before "/")): 0.03 | 0.60 RRT (Alpha Naphthol) ([3]; After 15 days at 25 ± 5° C., second preparation (after "/")): 0.02 | 0.60 RRT (Alpha Naphthol) ([3]; Initial): 0.01
